The values that follow come from ChEMBL document CHEMBL1201862, “PubChem BioAssay data set” (2004).

Structures are written as SMILES. Calls of active or inactive are those of the source.

In assay [1] the target is T1, Sentrin-specific protease 8 (Homo sapiens, UniProt Q96LD8).
T1 sequence (Q96LD8 whole entry): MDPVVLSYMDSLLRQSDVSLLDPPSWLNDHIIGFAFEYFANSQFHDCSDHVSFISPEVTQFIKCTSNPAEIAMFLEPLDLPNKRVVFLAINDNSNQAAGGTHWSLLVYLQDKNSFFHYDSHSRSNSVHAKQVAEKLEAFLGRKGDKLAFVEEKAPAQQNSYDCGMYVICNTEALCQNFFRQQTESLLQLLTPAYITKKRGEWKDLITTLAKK
Format: functional.

Assay [2] concerns the target T1, Sentrin-specific protease 8. Format: functional. The source holds these as a separate data set.
The next assay deals with T2, Caspase-6 (Homo sapiens, UniProt P55212).
T2 sequence (P55212 whole entry): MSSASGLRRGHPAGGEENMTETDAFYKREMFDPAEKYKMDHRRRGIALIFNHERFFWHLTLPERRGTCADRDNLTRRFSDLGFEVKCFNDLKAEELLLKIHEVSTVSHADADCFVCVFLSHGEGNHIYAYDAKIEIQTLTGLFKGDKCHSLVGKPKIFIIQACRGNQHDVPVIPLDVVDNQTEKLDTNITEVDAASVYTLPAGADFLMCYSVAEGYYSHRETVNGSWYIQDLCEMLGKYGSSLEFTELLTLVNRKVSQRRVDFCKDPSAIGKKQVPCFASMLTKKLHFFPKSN
In words: human caspase-6 inhibitors, dose response, biochemical, VEID-R110 fluorescence, cherry-pick (AID 720632).

In the next assay the target is Caspase-9 (Homo sapiens, UniProt P55211). In words: caspase-9 enzyme inhibition, dose response, selectivity assay for caspase-6 inhibitor project, biochemical, fluorescence, plate reader, cherry-picked samples (AID 743293).
Chain of Caspase-9 (P55211 1-315 limits assumed): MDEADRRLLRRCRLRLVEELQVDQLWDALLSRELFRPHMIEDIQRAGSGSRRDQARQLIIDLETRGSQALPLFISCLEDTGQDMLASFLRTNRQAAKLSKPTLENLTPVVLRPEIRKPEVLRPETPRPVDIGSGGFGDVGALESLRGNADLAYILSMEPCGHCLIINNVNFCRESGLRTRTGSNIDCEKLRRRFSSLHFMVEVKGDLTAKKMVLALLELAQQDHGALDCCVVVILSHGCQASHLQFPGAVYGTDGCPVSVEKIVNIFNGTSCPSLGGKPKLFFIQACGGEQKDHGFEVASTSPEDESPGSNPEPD
Chain of Caspase-9 (P55211 331-416 limits assumed): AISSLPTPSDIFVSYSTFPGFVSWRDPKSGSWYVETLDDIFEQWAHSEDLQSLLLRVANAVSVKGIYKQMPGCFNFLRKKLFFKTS
The target in the next assay is Caspase-7 (Homo sapiens, UniProt P55210). The assay can be described thus: human caspase-7 inhibitors, dose response, selectivity assay for caspase-6 inhibitor project, biochemical, DEVD-R110 fluorescence, cherry-pick (AID 743295). Format: […].
Chain of Caspase-7 (P55210 24-198 limits assumed): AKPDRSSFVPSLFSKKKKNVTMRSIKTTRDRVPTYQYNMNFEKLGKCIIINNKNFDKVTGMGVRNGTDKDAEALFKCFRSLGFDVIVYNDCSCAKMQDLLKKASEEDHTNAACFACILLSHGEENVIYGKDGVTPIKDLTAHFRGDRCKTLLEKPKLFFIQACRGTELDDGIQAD
Chain of Caspase-7 (P55210 207-303 limits assumed): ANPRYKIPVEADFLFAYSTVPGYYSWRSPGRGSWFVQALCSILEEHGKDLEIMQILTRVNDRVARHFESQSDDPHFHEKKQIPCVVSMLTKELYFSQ
In the next assay the target is Caspase-8 (Homo sapiens, UniProt Q14790). The assay can be described thus: caspase-8 inhibition counter-screen, dose response, selectivity assay for caspase-6 inhibitor project, biochemical, Z-IETD-R110 fluorescence, cherry-picked samples (AID 743294).
Chain of Caspase-8 (Q14790 217-374 limits assumed): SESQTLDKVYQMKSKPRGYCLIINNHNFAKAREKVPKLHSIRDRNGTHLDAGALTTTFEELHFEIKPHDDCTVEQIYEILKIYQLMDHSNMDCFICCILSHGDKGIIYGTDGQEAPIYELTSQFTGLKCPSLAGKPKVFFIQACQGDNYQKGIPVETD
Chain of Caspase-8 (Q14790 385-479 limits assumed): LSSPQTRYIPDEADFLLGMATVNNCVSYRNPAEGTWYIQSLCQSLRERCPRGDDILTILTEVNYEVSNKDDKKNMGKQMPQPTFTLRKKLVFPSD
The next assay has as its target T3, Caspase-3 (Homo sapiens, UniProt P42574).
T3 sequence (P42574 whole entry): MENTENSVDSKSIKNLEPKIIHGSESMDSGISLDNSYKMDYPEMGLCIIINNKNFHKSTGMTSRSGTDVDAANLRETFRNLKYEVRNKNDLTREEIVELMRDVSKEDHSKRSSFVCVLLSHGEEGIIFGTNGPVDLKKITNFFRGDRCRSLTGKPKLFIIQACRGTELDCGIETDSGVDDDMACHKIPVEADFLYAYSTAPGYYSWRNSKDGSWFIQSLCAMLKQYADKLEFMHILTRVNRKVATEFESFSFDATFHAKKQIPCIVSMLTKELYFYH
In words: caspase-3 enzyme inhibitors, selectivity check, dose response, selectivity assay for caspase-6 allosteric inhibitor project, biochemical, fluorescence, cherry-picked samples (AID 743291).

For a further assay, the target named is Kallikrein-7 (Homo sapiens, UniProt P49862). The assay can be described thus: Fluorescence Intensity-based biochemical primary high throughput dose response assay to identify activators of kallikrein-7 (K7) zymogen.
Chain of Kallikrein-7 (P49862 whole entry): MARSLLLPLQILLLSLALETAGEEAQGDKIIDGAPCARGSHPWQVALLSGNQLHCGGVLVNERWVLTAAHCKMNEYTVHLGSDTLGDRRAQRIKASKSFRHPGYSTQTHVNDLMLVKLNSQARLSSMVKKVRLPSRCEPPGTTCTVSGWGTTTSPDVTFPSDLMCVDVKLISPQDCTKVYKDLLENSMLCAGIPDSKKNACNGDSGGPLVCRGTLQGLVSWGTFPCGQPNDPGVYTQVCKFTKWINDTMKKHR
Assay [3] in a line: HepG2 cell cytotoxicity, dose response, cytotoxicity control, ATP luminescence, cherry-pick, set 6 (AID 1053125). Format: functional, cell-based.
Assay [4] can be described thus: cells. The note with it: A549.
Assay [5] can be described thus: cells.
Assay [6] can be described thus: cells. As to conditions: HEK293.
A further assay deals with Estrogen receptor beta (Homo sapiens, UniProt Q92731).
Chain of Estrogen receptor beta (Q92731 whole entry, the tested form may be a part): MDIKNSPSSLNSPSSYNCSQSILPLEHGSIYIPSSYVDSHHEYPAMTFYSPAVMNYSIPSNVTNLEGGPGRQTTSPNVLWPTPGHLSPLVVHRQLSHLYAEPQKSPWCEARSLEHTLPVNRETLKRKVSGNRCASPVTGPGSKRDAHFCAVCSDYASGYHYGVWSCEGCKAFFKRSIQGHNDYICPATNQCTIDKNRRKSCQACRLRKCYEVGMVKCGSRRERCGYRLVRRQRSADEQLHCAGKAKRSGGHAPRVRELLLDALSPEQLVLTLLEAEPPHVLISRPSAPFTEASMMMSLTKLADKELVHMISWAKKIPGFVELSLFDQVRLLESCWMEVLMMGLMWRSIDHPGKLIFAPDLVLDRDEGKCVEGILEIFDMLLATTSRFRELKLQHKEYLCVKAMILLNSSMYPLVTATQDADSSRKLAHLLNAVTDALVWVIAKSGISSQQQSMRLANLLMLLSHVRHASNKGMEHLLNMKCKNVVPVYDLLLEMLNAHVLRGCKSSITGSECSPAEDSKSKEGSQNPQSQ
Assay [7] can be described thus: inhibitors of HIV Env-driven cell fusion, dose response, cherry-pick (AID 652057). Format: functional, cell-based.
The target of another assay is Galanin receptor type 3 (Homo sapiens, UniProt O60755). In words: Fluorescence-based cell-based primary high throughput dose response assay to identify antagonists of the Galanin Receptor 3 (GalR3). In kind it is functional.
Chain of Galanin receptor type 3 (O60755 whole entry): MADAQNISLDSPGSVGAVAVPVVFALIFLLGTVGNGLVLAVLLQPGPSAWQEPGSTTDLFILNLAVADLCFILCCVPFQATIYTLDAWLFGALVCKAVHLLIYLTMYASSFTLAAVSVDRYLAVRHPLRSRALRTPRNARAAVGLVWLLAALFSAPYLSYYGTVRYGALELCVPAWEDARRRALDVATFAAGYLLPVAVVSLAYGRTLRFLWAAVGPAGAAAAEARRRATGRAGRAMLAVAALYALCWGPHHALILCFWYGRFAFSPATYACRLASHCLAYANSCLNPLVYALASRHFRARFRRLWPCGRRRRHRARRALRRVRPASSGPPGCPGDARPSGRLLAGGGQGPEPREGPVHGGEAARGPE
Assay [8] in a line: cells. As to conditions: HEK-CNG. In kind it is functional, cell-based.
Assay [9] in a line: ZM109 Env clade C HIV-1 fusion inhibitors, dose response, HeLa effector, CEM target cells, luciferase, cherry-pick (AID 652058). In kind it is functional, cell-based.
The nature of assay [10]: inhibitors of clade B AD8 Env fusion, dose response, cell-based, cherry-pick (AID 652062).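 Note: luciferase signal from cell-cell fusion driven by HIV-1 clade B AD8 Env; potency is for inhibitors of fusion seen as a drop in luminescence.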 In kind it is functional.
A short description of assay [11]: HIV Env cell-cell fusion inhibitors, dose response, HIV entry, plate reader, dry powder (AID 687023). In kind it is functional, cell-based.
Assay [12] in a line: CEM21 cell cytotoxicity, dose response, cytotoxicity control, plate reader, dry powder (AID 687026). Format: functional, cell-based.
Assay [13] in a line: ADAM10 inhibitors, peptide cleavage, dose response, biochemical, QFRET (AID 743254).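 Note: ADAM10 enzyme with the DM2 quenched FRET peptide as substrate; EDANS fluorescence gain as the protease cuts the substrate; inhibitor potency against ADAM10 proteolytic activity.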
Assay [14] concerns the target Disintegrin and metalloproteinase domain-containing protein 17 (Homo sapiens, UniProt P78536). In words: ADAM17 protease inhibitors, dose response, counter-screen for ADAM10 exosite inhibitor project, biochemical, quenched FRET substrate (AID 743253).
Another assay has as its target Paired box protein Pax-8 (Homo sapiens, UniProt Q06710). The assay can be described thus: inhibitors of PAX8-driven TPO luciferase reporter, dose response, RMG-I cells, cherry-pick (AID 687027).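 Note: luciferase reporter driven by Pax8 target thyroperoxidase promoter measured by SteadyGlo luminescence.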 In kind it is functional, cell-based. On the technique in general: Reporter assays use an easily measured gene product as a stand-in for the process of interest.
Assay [15] is described as follows: A549 cell cytotoxicity, dose response, cytotoxicity control, 24 h, CellTiter-Glo luminescence, cherry-picks (AID 1053115). As to conditions: A549, 24 h. Format: functional, cell-based.
The next assay concerns HEK293. In words: HEK293T cell cytotoxicity, dose response, cytotoxicity control, ATP luminescence, cherry-pick samples (AID 687005).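 Note: cells exposed to compound for 48 hours.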 As to conditions: Homo sapiens. Format: functional, cell-based.
A short description of assay [16]: HEK293 Cytotoxicity Assay Measured in Cell-Based System Using Plate Reader - 7071-01_Inhibitor_Dose_CherryPick_Activity_Set2. In kind it is functional.
Assay [17] can be described thus: inhibitors of non-replicating M. tuberculosis, dose response, luciferase, dry powder (AID 651619). In kind it is functional. The note with it: Mycobacterium tuberculosis.
Assay [18] is described as follows: inhibitors of non-replicating M. tuberculosis, dose response, luciferase, dry powder (AID 651620). Format: functional. As to conditions: Mycobacterium tuberculosis.
Assay [19] is described as follows: BHK-21 cell cytotoxicity, cytotoxicity control for flavivirus guanylyltransferase probe project, secondary screen (AID 624078). In kind it is functional.
A short description of assay [20]: THP-1 cell cytotoxicity, dose response, cytotoxicity control for non-replicating M. tuberculosis project (AID 489025). Format: functional.
Assay [21] in a line: HepG2 cell cytotoxicity, dose response, cytotoxicity control for non-replicating M. tuberculosis project (AID 489018). In kind it is functional. As to conditions: Mycobacterium tuberculosis.
The nature of assay [22]: Vero E6 cell cytotoxicity, dose response, cytotoxicity control for non-replicating M. tuberculosis project, secondary assay (AID 492998). Format: functional, VeroE6. As to conditions: Vero C1008.
Assay [23] in a line: cells. In kind it is functional.
The next assay concerns the target fMet-Leu-Phe receptor (Homo sapiens, UniProt P21462). In words: FPR ligands, dose response (AID 519). In kind it is functional.

Chain of Paired box protein Pax-8 (Q06710 whole entry): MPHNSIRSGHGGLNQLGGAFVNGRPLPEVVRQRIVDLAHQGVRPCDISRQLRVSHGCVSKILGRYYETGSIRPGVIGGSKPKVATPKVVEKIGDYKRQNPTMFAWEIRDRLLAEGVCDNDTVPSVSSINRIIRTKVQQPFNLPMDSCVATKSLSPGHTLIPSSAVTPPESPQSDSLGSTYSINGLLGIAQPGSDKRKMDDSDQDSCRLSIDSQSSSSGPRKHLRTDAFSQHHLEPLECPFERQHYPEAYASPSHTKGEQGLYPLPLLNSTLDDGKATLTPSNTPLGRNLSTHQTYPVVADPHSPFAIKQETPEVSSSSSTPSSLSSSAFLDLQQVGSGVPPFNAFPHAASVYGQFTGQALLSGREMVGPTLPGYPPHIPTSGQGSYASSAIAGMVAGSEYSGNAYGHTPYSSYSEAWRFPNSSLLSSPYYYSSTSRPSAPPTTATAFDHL
Chain of Disintegrin and metalloproteinase domain-containing protein 17 (P78536 whole entry, the tested form may be a part): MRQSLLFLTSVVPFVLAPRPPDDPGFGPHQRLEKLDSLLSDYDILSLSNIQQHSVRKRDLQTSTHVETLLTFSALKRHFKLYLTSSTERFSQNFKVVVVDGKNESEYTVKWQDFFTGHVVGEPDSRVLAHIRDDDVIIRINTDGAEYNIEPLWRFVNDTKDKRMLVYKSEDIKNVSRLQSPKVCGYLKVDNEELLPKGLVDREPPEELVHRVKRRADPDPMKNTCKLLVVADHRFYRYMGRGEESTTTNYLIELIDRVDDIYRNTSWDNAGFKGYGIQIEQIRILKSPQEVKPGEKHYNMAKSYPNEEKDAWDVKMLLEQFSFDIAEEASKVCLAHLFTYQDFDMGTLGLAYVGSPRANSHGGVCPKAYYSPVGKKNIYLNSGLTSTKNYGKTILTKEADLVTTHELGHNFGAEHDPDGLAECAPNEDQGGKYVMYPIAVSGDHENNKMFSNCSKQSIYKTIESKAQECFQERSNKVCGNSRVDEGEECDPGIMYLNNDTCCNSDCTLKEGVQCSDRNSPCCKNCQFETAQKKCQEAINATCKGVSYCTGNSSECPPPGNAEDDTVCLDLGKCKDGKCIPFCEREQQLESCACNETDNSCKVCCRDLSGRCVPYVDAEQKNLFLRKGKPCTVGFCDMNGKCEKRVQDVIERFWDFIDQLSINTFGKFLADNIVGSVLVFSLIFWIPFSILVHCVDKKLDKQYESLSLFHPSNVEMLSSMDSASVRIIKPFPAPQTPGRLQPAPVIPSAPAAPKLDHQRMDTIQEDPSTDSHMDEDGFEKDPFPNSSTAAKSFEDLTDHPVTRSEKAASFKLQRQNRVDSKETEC
Chain of fMet-Leu-Phe receptor (P21462 whole entry): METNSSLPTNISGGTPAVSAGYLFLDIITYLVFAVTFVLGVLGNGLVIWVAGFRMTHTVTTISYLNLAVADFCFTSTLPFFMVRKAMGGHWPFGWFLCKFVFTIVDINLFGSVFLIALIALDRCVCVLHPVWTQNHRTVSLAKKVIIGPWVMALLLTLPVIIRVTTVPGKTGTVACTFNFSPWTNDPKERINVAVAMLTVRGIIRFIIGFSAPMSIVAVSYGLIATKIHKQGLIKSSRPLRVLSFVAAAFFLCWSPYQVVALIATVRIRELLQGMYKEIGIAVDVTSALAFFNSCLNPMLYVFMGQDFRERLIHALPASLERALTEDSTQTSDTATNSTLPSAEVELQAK

One may read the IC50 as the point on the concentration scale where inhibition reaches its midpoint. As usually defined, the AC50 is the concentration at which the activity in the assay is half-maximal. In the case of `O=C1Cc2ccccc2C(=O)N1`, the IC50 in [1] was 0.702 µM (active); in assay [2], 0.0408 µM (active). Further, the AC50 on Caspase-6 is 1.22 µM (active); on Caspase-9 it was 1.34 µM (active); at Caspase-7, 1.32 µM (active); at Caspase-8 it was 1.09 µM (active); on Caspase-3, 0.74 µM (active).

What is called EC50 is the concentration that produces a half-maximal response. For the compound `COc1ccc(OC)c(/C=C/C(=O)NCCc2nc3ccccc3[nH]2)c1`, the EC50 at Kallikrein-7 was > 69.5 µM (inactive).

For the compound `CN1CCc2c(sc(NC(=O)c3cc(Cl)sc3Cl)c2C(N)=O)C1`, the AC50 in assay [3] was > 52 µM (inactive); in the assay “cells [4]” it was > 52 µM (inactive); in “cells [5]”, 19.9 µM (active); in “cells [6]”, 33.7 µM (active).

For the compound `Cc1oc(-c2ccc(Cl)cc2)nc1CN1CCCC(C(=O)NCc2cccnc2)C1` (centres undefined), the IC50 against Estrogen receptor beta was > 50 µM (not active); at Galanin receptor type 3 it was 2 µM (active). Further, the concentration at half-maximal activity (AC50) in [7] was 4.1 µM (active); in [9], < 0.26 µM (active); in [10], 4.75 µM (active); in assay [11] it was 3.91 µM (active); in assay [12], > 70 µM (inactive). Also, the EC50 in “cells [8]” was > 29.9 µM (inactive).

On to `Cc1cccc(C)c1-c1ccc(CN2C(CC(C)C)C(=O)N(Cc3cn(CCO)nn3)CCS2(=O)=O)cc1` (centres undefined), for which the figures for the IC50 in assay [13] and in [14] were 12.3 µM (inactive) and > 69.5 µM (inactive), respectively.

As for `Cc1ccc(S(=O)(=O)Nc2cccc3c2O[C@@H](CN(C)C(=O)Nc2ccc(C(F)(F)F)cc2)[C@@H](C)CN([C@H](C)CO)C3=O)cc1`, the AC50 is 12.6 µM (active) at Paired box protein Pax-8 and 42.6 µM (active) in assay [15].

For `Cc1ccc(S(=O)(=O)Nc2ccc3c(c2)C(=O)N([C@@H](C)CO)C[C@@H](C)[C@@H](CN(C)S(=O)(=O)c2ccc(Cl)cc2)OCCCC[C@H](C)O3)cc1`, the AC50 (in the assay on HEK293; in assay [16]) was 24.4 µM (active) in each case.

What is called IC90 is the point of the concentration-response curve where the effect stands at 90%. Regarding `c1ccc(CSc2nnc(-c3cccnc3)o2)nc1`, the IC90 in [17] and in assay [18] was 16 µM (active) throughout.

By CC50 is commonly meant the concentration at which the toxic effect on the cells reaches its halfway point. In the case of `O=[N+]([O-])c1cccc(S(=O)(=O)Nc2cc(SCc3ccccc3)c(O)c3ccccc23)c1`, in assay [19], the CC50 is 14.9 µM (active).

As usually defined, the Ki is the dissociation constant of the complex between target and ligand, obtained from inhibition or displacement. Regarding `Cc1nn2c(=O)c3c([nH]c2c1-c1ccc(Cl)cc1)CCC3`, the results for the CC50 in [20], in assay [21] and in assay [22] were 11.2 µM (active), 14.9 µM (active) and 14.1 µM (active), respectively. Moreover, in “cells [23]”, the IC50 was 10.3 µM (active). Moreover, the inhibition constant Ki at fMet-Leu-Phe receptor was 14.1 µM (active).
